From patent publication US12122767B2, “Bicyclic heterocycles as FGFR inhibitors” (Incyte Corporation, priority 2019, dated 2024)

Target: T1, FGFR3 enzyme (Millipore) (Homo sapiens, UniProt P22607)
T1 construct: purchased Millipore
Test: FGFR Enzymatic Assay (peptide phosphorylation, FRET)
Format: biochemical
Details: pre-incubated for 4 hours; ATP 140 μM, peptide 500 nM
Experimental: The inhibitor potency of the exemplified compounds was measured in an enzyme assay that measures peptide phosphorylation using FRET measurements to detect product formation. Inhibitors were serially diluted in DMSO and a volume of 0.5 μL was transferred to the wells of a 384-well plate. For FGFR3, a 10 μL volume of FGFR3 enzyme (Millipore) diluted in assay buffer (50 mM HEPES, 10 mM MgCl2, 1 mM EGTA, 0.01% Tween-20, 5 mM DTT, pH 7.5) was added to the plate and pre-incubated for a time between 5-10 minutes and up to 4 hours. Appropriate controls (enzyme blank and enzyme with no inhibitor) were included on the plate. The assay was initiated by the addition of a 10 μL solution containing biotinylated EQEDEPEGDYFEWLE peptide substrate (SEQ ID NO: 1) and ATP (final concentrations of 500 nM and 140 μM respectively) in assay buffer to the wells. The plate was incubated at 25° C. for 1 hr. The reactions were ended with the addition of 10 μL/well of quench solution (50 mM Tris, 150 mM NaCl, 0.5 mg/mL BSA, pH 7.8; 30 mM EDTA with Perkin Elmer Lance Reagents at 3.75 nM Eu-antibody PY20 and 180 nM APC-Streptavidin). The plate was allowed to equilibrate for ˜1 hr before scanning the wells on a PheraStar plate reader (BMG Labtech).
GraphPad prism3 was used to analyze the data. The IC50 values were derived by fitting the data to the equation for a sigmoidal dose-response with a variable slope. Y=Bottom+(Top-Bottom)/(1+10^((Log IC50−X)*HillSlope)) where X is the logarithm of concentration and Y is the response.
Table 1 provides IC50 data for compounds of the invention assayed in the FGFR Enzymatic Assay after dilution in assay buffer, added to the plate and pre-incubated for 4 hours.

T1 sequence (P22607 23-806): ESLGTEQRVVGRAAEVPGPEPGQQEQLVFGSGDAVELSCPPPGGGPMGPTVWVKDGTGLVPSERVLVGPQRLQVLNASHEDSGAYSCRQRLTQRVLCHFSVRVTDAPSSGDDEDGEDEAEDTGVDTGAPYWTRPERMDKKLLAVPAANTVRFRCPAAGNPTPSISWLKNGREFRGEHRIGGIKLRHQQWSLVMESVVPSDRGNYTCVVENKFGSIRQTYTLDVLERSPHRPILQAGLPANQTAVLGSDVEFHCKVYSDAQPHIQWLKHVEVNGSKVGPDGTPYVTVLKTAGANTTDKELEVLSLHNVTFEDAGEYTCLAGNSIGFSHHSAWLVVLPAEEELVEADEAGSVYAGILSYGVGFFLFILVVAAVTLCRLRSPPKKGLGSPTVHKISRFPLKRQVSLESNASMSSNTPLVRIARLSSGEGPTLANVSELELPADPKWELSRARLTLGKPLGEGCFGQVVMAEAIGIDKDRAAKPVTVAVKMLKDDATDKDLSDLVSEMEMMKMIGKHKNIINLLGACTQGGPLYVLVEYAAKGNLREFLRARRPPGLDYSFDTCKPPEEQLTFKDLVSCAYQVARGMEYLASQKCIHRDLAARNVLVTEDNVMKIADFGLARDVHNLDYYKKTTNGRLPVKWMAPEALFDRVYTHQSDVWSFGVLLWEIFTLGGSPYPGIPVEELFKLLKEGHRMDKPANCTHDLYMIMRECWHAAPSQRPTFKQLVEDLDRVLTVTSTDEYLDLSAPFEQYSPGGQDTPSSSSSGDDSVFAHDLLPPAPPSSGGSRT

Q: How did the IC50 turn out when `COc1cc2[nH]nc(-c3cnn(C4CN(C(C)=O)C4)c3)c2cc1C(=O)Nc1c(C)cccc1C` [Example 33, 3-(1-(1-Acetylazetidin-3-yl)-1H-pyrazol-4-yl)-N-(2,6-dimethylphenyl)-6-methoxy-1H-indazole-5-carboxamide] was run?
A: < 10 nM

Q: For `COc1cc2[nH]nc(-c3cnn(C4CCN(C)CC4)c3)c2cc1C(=O)Nc1c(C)cccc1C` [Example 34, N-(2,6-Dimethylphenyl)-6-methoxy-3-(1-(1-methylpiperidin-4-yl)-1H-pyrazol-4-yl)-1H-indazole-5-carboxamide], which IC50 is on record?
A: < 10 nM

Q: With `COc1cc2[nH]nc(-c3cnn(C4CCOCC4)c3)c2cc1C(=O)Nc1c(C)cccc1C` [Example 35, N-(2,6-Dimethylphenyl)-6-methoxy-3-(1-(tetrahydro-2H-pyran-4-yl)-1H-pyrazol-4-yl)-1H-indazole-5-carboxamide] as the compound, how does the IC50 read?
A: < 10 nM

Q: How did the IC50 turn out when `COc1cc2[nH]nc(-c3cnn(C4CCOC4)c3)c2cc1C(=O)Nc1c(C)cccc1C` (stereo not shown) [Example 36, N-(2,6-Dimethylphenyl)-6-methoxy-3-(1-(tetrahydrofuran-3-yl)-1H-pyrazol-4-yl)-1H-indazole-5-carboxamide] was run?
A: < 10 nM

Q: With `COc1cc2[nH]nc(-c3cnn(Cc4ccccn4)c3)c2cc1C(=O)Nc1c(C)cccc1C` [Example 37, N-(2,6-Dimethylphenyl)-6-methoxy-3-(1-(pyridin-2-ylmethyl)-1H-pyrazol-4-yl)-1H-indazole-5-carboxamide] as the compound, how does the IC50 read?
A: < 10 nM

Q: With `COc1cc2[nH]nc(-c3cnn(CCO)c3)c2cc1C(=O)Nc1c(C)cccc1C` [Example 38, N-(2,6-Dimethylphenyl)-3-(1-(2-hydroxyethyl)-1H-pyrazol-4-yl)-6-methoxy-1H-indazole-5-carboxamide] as the compound, how does the IC50 read?
A: 10 to 30 nM

Q: With `COc1cc2[nH]nc(-c3cnn(CC4CCNCC4)c3)c2cc1C(=O)Nc1c(C)cccc1C` [Example 39, N-(2,6-Dimethylphenyl)-6-methoxy-3-(1-(piperidin-4-ylmethyl)-1H-pyrazol-4-yl)-1H-indazole-5-carboxamide] as the compound, how does the IC50 read?
A: 10 to 30 nM

Q: Which IC50 does the source give for `COc1cc2[nH]nc(-c3cnn(CCN4CCOCC4)c3)c2cc1C(=O)Nc1c(C)cccc1C` [Example 40, N-(2,6-Dimethylphenyl)-6-methoxy-3-(1-(2-morpholinoethyl)-1H-pyrazol-4-yl)-1H-indazole-5-carboxamide] here?
A: 10 to 30 nM

Q: `COc1cc2[nH]nc(-c3cnn(Cc4cccnc4)c3)c2cc1C(=O)Nc1c(C)cccc1C` [Example 41, N-(2,6-Dimethylphenyl)-6-methoxy-3-(1-(pyridin-3-ylmethyl)-1H-pyrazol-4-yl)-1H-indazole-5-carboxamide] was tested. Which IC50 did it give?
A: 10 to 30 nM

Q: `COc1cc2[nH]nc(-c3cnn(-c4ccccn4)c3)c2cc1C(=O)Nc1c(C)cccc1C` [Example 42, N-(2,6-Dimethylphenyl)-6-methoxy-3-(1-(pyridin-2-yl)-1H-pyrazol-4-yl)-1H-indazole-5-carboxamide] was tested. Which IC50 did it give?
A: 30 to 200 nM

Q: With `COc1cc2[nH]nc(-c3cnn(C4CCC4)c3)c2cc1C(=O)Nc1c(C)cccc1C` [Example 43, 3-(1-Cyclobutyl-1H-pyrazol-4-yl)-N-(2,6-dimethylphenyl)-6-methoxy-1H-indazole-5-carboxamide] as the compound, how does the IC50 read?
A: < 10 nM

Q: With `COc1cc2[nH]nc(-c3cnn(C4CC4)c3)c2cc1C(=O)Nc1c(C)cccc1C` [Example 44, 3-(1-Cyclopropyl-1H-pyrazol-4-yl)-N-(2,6-dimethylphenyl)-6-methoxy-1H-indazole-5-carboxamide] as the compound, how does the IC50 read?
A: < 10 nM

Q: How did the IC50 turn out when `CCCn1cc(-c2n[nH]c3cc(OC)c(C(=O)Nc4c(C)cccc4C)cc23)cn1` [Example 45, N-(2,6-Dimethylphenyl)-6-methoxy-3-(1-propyl-1H-pyrazol-4-yl)-1H-indazole-5-carboxamide] was run?
A: < 10 nM
